Results from PubChem BioAssay (NCI).
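GI50: concentration for 50% inhibition of growth. The concentration for full growth arrest is given as TGI.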

What was measured:
Experiment in all cases: NCI anticancer screen, dose series, 384-well format
SF-268 CNS = system: SF-268 CNS
HCT-116 colon = system: HCT-116 colon
MDA-MB-435 melanoma = system: MDA-MB-435 melanoma
TK-10 renal = system: TK-10 renal
HCC-2998 colon = system: HCC-2998 colon
U251 glioblastoma = system: U251 glioblastoma
NCI/ADR-RES ovarian = system: NCI/ADR-RES ovarian
SK-MEL-28 melanoma = system: SK-MEL-28 melanoma
NCI-H322M lung = system: NCI-H322M lung
SK-OV-3 ovarian = system: SK-OV-3 ovarian
MOLT-4 leukemia = system: MOLT-4 leukemia
SF-295 CNS = system: SF-295 CNS
MDA-MB-231 breast = system: MDA-MB-231 breast
T-47D breast = system: T-47D breast
NCI-H226 lung = system: NCI-H226 lung
786-0 renal = system: 786-0 renal
A498 renal = system: A498 renal
SK-MEL-2 melanoma = system: SK-MEL-2 melanoma
SR leukemia = system: SR leukemia
RPMI-8226 leukemia = system: RPMI-8226 leukemia
MALME-3M melanoma = system: MALME-3M melanoma
UO-31 renal = system: UO-31 renal
A549 NSCLC = system: A549 NSCLC
KM12 colon = system: KM12 colon
CAKI-1 renal = system: CAKI-1 renal
HOP-92 NSCLC = system: HOP-92 NSCLC
IGROV1 ovarian = system: IGROV1 ovarian
PC-3 prostate = system: PC-3 prostate
SK-MEL-5 melanoma = system: SK-MEL-5 melanoma
UACC-257 melanoma = system: UACC-257 melanoma
OVCAR-3 ovarian = system: OVCAR-3 ovarian
MCF7 breast = system: MCF7 breast
SN12C renal = system: SN12C renal
M14 melanoma = system: M14 melanoma
CCRF-CEM leukemia = system: CCRF-CEM leukemia
K-562 leukemia = system: K-562 leukemia
RXF 393 renal = system: RXF 393 renal
NCI-H23 lung = system: NCI-H23 lung
SNB-19 CNS = system: SNB-19 CNS
BT-549 breast = system: BT-549 breast
MDA-MB-468 breast = system: MDA-MB-468 breast
SW-620 colon = system: SW-620 colon
HOP-62 NSCLC = system: HOP-62 NSCLC
NCI-H460 NSCLC = system: NCI-H460 NSCLC
HL-60(TB) leukemia = system: HL-60(TB) leukemia
UACC-62 melanoma = system: UACC-62 melanoma
OVCAR-5 ovarian = system: OVCAR-5 ovarian
OVCAR-4 ovarian = system: OVCAR-4 ovarian
SF-539 CNS = system: SF-539 CNS
COLO 205 colon = system: COLO 205 colon
HCT-15 colon = system: HCT-15 colon
ACHN renal = system: ACHN renal
LOX IMVI melanoma = system: LOX IMVI melanoma
OVCAR-8 ovarian = system: OVCAR-8 ovarian
NCI-H522 lung = system: NCI-H522 lung
HT29 colon = system: HT29 colon
DU-145 prostate = system: DU-145 prostate

Nc1ccc(/C=C/C(=O)NCc2cc3cc(-c4ccc(C(=O)N5CCC(F)(F)CC5)cc4)cc(-c4ccc(F)cc4)c3o2)cn1
GI50 (SF-268 CNS): 175 nM | TGI (SF-268 CNS): 325 nM | GI50 (HCT-116 colon): 20.6 nM | TGI (HCT-116 colon): 40.7 nM | GI50 (MDA-MB-435 melanoma): 146 nM | TGI (MDA-MB-435 melanoma): 283 nM | GI50 (TK-10 renal): 210 nM | TGI (TK-10 renal): 404 nM | GI50 (HCC-2998 colon): 114 nM | TGI (HCC-2998 colon): 270 nM | GI50 (U251 glioblastoma): 35.6 nM | TGI (U251 glioblastoma): 148 nM | GI50 (NCI/ADR-RES ovarian): 307 nM | TGI (NCI/ADR-RES ovarian): 1140 nM | GI50 (SK-MEL-28 melanoma): 223 nM | TGI (SK-MEL-28 melanoma): 410 nM | GI50 (NCI-H322M lung): 34.7 nM | TGI (NCI-H322M lung): 139 nM | GI50 (SK-OV-3 ovarian): 20.9 nM | TGI (SK-OV-3 ovarian): 49.1 nM | GI50 (MOLT-4 leukemia): 21.9 nM | TGI (MOLT-4 leukemia): 39.2 nM | GI50 (SF-295 CNS): 188 nM | TGI (SF-295 CNS): 368 nM | GI50 (MDA-MB-231 breast): 549 nM | TGI (MDA-MB-231 breast): 1950 nM | GI50 (T-47D breast): 20.1 nM | TGI (T-47D breast): 50.6 nM | GI50 (NCI-H226 lung): 7380 nM | TGI (NCI-H226 lung): > 100000 nM | GI50 ([…]-0 renal): 117 nM | TGI (786-0 renal): 249 nM | GI50 (A498 renal): 2270 nM | TGI (A498 renal): 33400 nM | GI50 (SK-MEL-2 melanoma): 41.4 nM | TGI (SK-MEL-2 melanoma): 108 nM | GI50 (SR leukemia): 1330 nM | TGI (SR leukemia): 2690 nM | GI50 (RPMI-8226 leukemia): 58.7 nM | TGI (RPMI-8226 leukemia): 191 nM | GI50 (MALME-3M melanoma): 374 nM | TGI (MALME-3M melanoma): 916 nM | GI50 (UO-31 renal): 52.3 nM | TGI (UO-31 renal): 174 nM | GI50 (A549 NSCLC): 252 nM | TGI (A549 NSCLC): 699 nM | GI50 (KM12 colon): 58.6 nM | TGI (KM12 colon): 210 nM | GI50 (CAKI-1 renal): 120 nM | TGI (CAKI-1 renal): 282 nM | GI50 (HOP-92 NSCLC): 441 nM | TGI (HOP-92 NSCLC): 1830 nM | GI50 (IGROV1 ovarian): 131 nM | TGI (IGROV1 ovarian): 265 nM | GI50 (PC-3 prostate): 48.1 nM | TGI (PC-3 prostate): 165 nM | GI50 (SK-MEL-5 melanoma): 174 nM | TGI (SK-MEL-5 melanoma): 360 nM | GI50 (UACC-257 melanoma): 504 nM | TGI (UACC-257 melanoma): 2910 nM | GI50 (OVCAR-3 ovarian): 53.9 nM | TGI (OVCAR-3 ovarian): 217 nM | GI50 (MCF7 breast): 213 nM | TGI (MCF7 breast): 485 nM | GI50 (SN12C renal): 17.6 nM | TGI (SN12C renal): 32 nM | GI50 (M14 melanoma): 328 nM | TGI (M14 melanoma): 1390 nM | GI50 (CCRF-CEM leukemia): 21.4 nM | TGI (CCRF-CEM leukemia): 37.2 nM | GI50 (K-562 leukemia): 33.3 nM | TGI (K-562 leukemia): 175 nM | GI50 (RXF 393 renal): 105 nM | TGI (RXF 393 renal): 255 nM | GI50 (NCI-H23 lung): 218 nM | TGI (NCI-H23 lung): 430 nM | GI50 (SNB-19 CNS): 28 nM | TGI (SNB-19 CNS): 82 nM | GI50 (BT-549 breast): 211 nM | TGI (BT-549 breast): 461 nM | GI50 (MDA-MB-468 breast): 190 nM | TGI (MDA-MB-468 breast): 384 nM | GI50 (SW-620 colon): 23.9 nM | TGI (SW-620 colon): 53.4 nM | GI50 (HOP-62 NSCLC): 65.6 nM | TGI (HOP-62 NSCLC): 242 nM | GI50 (NCI-H460 NSCLC): 437 nM | TGI (NCI-H460 NSCLC): 1570 nM | GI50 (HL-60(TB) leukemia): 22.8 nM | TGI (HL-60(TB) leukemia): 37.6 nM | GI50 (UACC-62 melanoma): 206 nM | TGI (UACC-62 melanoma): 427 nM | GI50 (OVCAR-5 ovarian): 21.5 nM | TGI (OVCAR-5 ovarian): 44 nM | GI50 (OVCAR-4 ovarian): 212 nM | TGI (OVCAR-4 ovarian): 472 nM | GI50 (SF-539 CNS): 15.5 nM | TGI (SF-539 CNS): 30.3 nM | GI50 (COLO 205 colon): 22.7 nM | TGI (COLO 205 colon): 53.4 nM | GI50 (HCT-15 colon): 250 nM | TGI (HCT-15 colon): 741 nM | GI50 (ACHN renal): 121 nM | TGI (ACHN renal): 348 nM | GI50 (LOX IMVI melanoma): 567 nM | TGI (LOX IMVI melanoma): 2020 nM | GI50 (OVCAR-8 ovarian): 16.8 nM | TGI (OVCAR-8 ovarian): 32.8 nM | GI50 (NCI-H522 lung): 18.1 nM | TGI (NCI-H522 lung): 34.8 nM | GI50 (HT29 colon): 331 nM | TGI (HT29 colon): 985 nM | GI50 (DU-145 prostate): 259 nM | TGI (DU-145 prostate): 641 nM
